Experimental data as given in patent US9206427B2, “Compositions, kits, and methods for the modulation of immune responses using galectin-1” (Dana-Farber Cancer Institute, Inc., priority 2007, dated 2015).
Like-named read-outs stand apart in the source and are kept apart here.

Experiments:
normal activated T-cells = assay: rGal1-induced apoptosis of activated T cells (FITC-annexin V and PI double staining); assay type: cell-based, human; settings: activated T cells treated with rGal1 in the presence or absence of TDG; FIG. 4
Experimental: Activated T-cells were either untreated or treated with rGal1 in the presence or absence of TDG. Thereafter, apoptosis was assessed by FITC-annexin V and PI double staining. The histograms (left panels) are representative of 3 separate experiments that were averaged to obtain the percent positive cells in the bar graphs (right panels).
Recombinant Gal1 was obtained and purified essentially as described (Toscano et al. (2006) J Immunol 176, 6323-6332). T cells were purified as described above and simultaneously activated with anti-CD3-(0.1 μg/mL) and anti-CD28-(0.5 μg/mL) coated latex beads (Invitrogen) and treated with rGal1 (20 μM) in RPMI 1640 medium containing 10% fetal bovine serum and 1 mM β-ME alone or rGal1 and the Gal1 inhibitor, thiodigalactoside (TDG, 100 mM) (Rabinovich et al. (1999) J Exp Med 190, 385-397) or left untreated for 16 hours. Supernatants were then analyzed for IL-4, IL-5, IL-10, and IL-13 using cytometric bead array (CBA) Flex Set beads according to manufacturer's protocol (BD Biosciences, San Jose, Calif.). […] Thereafter, the PE detection reagent was added and samples were incubated for an additional 2 hours, washed and analyzed using FACS Aria Flow Cytometer (BD Biosciences). Results were captured with FACS Diva software and analyzed with the FCAP1.1 program (BD Biosciences). […]

activated T cells [1] = assay: Th2 cytokine production by rGal1-treated activated T cells (cytometric bead array); assay type: cell-based, human; settings: anti-CD3/anti-CD28 activated T cells, rGal1 20 μM, TDG 100 mM, 16 hours; FIG. 3D
Experimental: Recombinant Gal1 was obtained and purified essentially as described (Toscano et al. (2006) J Immunol 176, 6323-6332). T cells were purified as described above and simultaneously activated with anti-CD3-(0.1 μg/mL) and anti-CD28-(0.5 μg/mL) coated latex beads (Invitrogen) and treated with rGal1 (20 μM) in RPMI 1640 medium containing 10% fetal bovine serum and 1 mM β-ME alone or rGal1 and the Gal1 inhibitor, thiodigalactoside (TDG, 100 mM) (Rabinovich et al. (1999) J Exp Med 190, 385-397) or left untreated for 16 hours. Supernatants were then analyzed for IL-4, IL-5, IL-10, and IL-13 using cytometric bead array (CBA) Flex Set beads according to manufacturer's protocol (BD Biosciences, San Jose, Calif.). In brief, multiplexed antibody-conjugated beads were incubated with culture supernatants or serial dilutions of cytokine standards for 1 hour. Thereafter, the PE detection reagent was added and samples were incubated for an additional 2 hours, washed and analyzed using FACS Aria Flow Cytometer (BD Biosciences). Results were captured with FACS Diva software and analyzed with the FCAP1.1 program (BD Biosciences).

activated T cells [2] = assay: Analysis of regulatory T cells (CD4+ CD25high FOXP3+) by triple-color flow cytometry; assay type: cell-based, human; settings: activated T cells treated with rGal1 or rGal1 and TDG, 24 hours; FIG. 3E
Experimental: T cells were purified, activated with anti-CD3- and anti-CD28-coated latex beads and treated with rGal1, rGal1 and TDG or left untreated for 24 hours. Thereafter, cells were stained with CD4-FITC and CD25-APC, washed, fixed, permeabilized and stained with FOXP3-PE antibody or rat IgG2b isotype control as previously described (Zorn et al. (2006) Blood 108, 1571-1579) (Human Regulatory T-cell staining kit, eBioscience, San Diego, Calif.). CD4^+ CD25^high FOXP3 Treg cells were identified and quantified using Beckman Cytomics FC500 flow cytometer as previously described (Zorn et al. (2006) Blood 108, 1571-1579).

[3] = system: activated T cells co-cultured with HD-MY-Z cells; assay: Viable T cells after co-culture with Gal1 shRNA or SCR shRNA HD-MY-Z cHL cells (Annexin-V, CD3, CD4 flow cytometry); assay type: cell-based, human; settings: PHA-activated T cells, 6 hours co-culture, Gal1 shRNA versus SCR shRNA HD-MY-Z; FIG. 3B
Experimental: 1. Co-culture. Peripheral blood mononuclear cells (PBMCs) were obtained from normal blood donors by Ficoll-Hypaque (GE Healthcare) gradient centrifugation. Thereafter, T cells were purified using Pan T Cell Isolation Kit II (Miltenyi Biotec, Auburn, Calif.) and activated with 1 μg/mL PHA (Sigma-Aldrich) for 64 hours. 1×10^6 of activated T cells were then co-cultured with monolayers (3×10^6 cells) of HD-MY-Z cells expressing either scrambled shRNA or Gal1 specific shRNA for 6 hours at 37° C.
2. Analyses of viable T cells. Following co-culture, all cells were harvested and sequentially stained with CD3-PE and CD4-PE-Cy5 (Beckman Coulter, Fullerton, Calif.) followed by Annexin V-FITC and analyzed with a Beckman Cytomics FC500 flow cytometer. The numbers of viable (annexin V-) and (propidium iodide-) CD3^+ and CD4^+ T cells in Gal1 shRNA or scrambled shRNA HD-MY-Z/T-cell co-cultures were then compared.

[4] = system: CD4+ T cells co-cultured with HD-MY-Z cells; assay: T-bet and GATA-3 expression in co-cultured CD4+ T cells (QPCR); assay type: cell-based, human; settings: CD4+ cells after 24-48 hours co-culture, Gal1 shRNA versus SCR shRNA HD-MY-Z; FIG. 3C
Experimental: 3. Analyses of T-bet and GATA-3 expression in co-cultured CD4^+ T cells. After PHA-activated T-cells were co-cultured with HD-MY-Z cells expressing either scrambled shRNA or Gal1 specific shRNA for 24-48 hours, cells were collected and non-viable cells were depleted by Ficoll-Hypaque gradient centrifugation. Remaining viable cells were washed, incubated with CD4 MACS microbeads and purified using a MACS LS column according to the manufacturer's protocol (Miltenyi Biotec). Thereafter, RNA was obtained from the isolated CD4^+ cells and cDNA was synthesized from total RNA (3 μg) as described above. GATA-3, T-bet and GAPDH (housekeeping control) transcript abundance was evaluated by QPCR using Power SYBR green PCR Master Mix (Applied Biosystems, Foster City, Calif.), GAPDH primers listed above and the following GATA3 and T-bet primers: GATA3, Forward: […] (SEQ ID NO: 14); GATA3, Reverse: ACACCTGGCTCCCGTGGT (SEQ ID NO: 15); T-bet, Forward: […] (SEQ ID NO: 16); T-bet, Reverse: […] (SEQ ID NO: 17). PCR and transcript abundance analysis was performed as described above. GATA-3 and T-bet expression in purified CD4^+ cells from SCR shRNA and Gal1 shRNA HD-MY-Z/T-cell cocultures were then compared.

Gal1 = assay: RNA-interference mediated Gal1 knock-down in HD-MY-Z cells (immunoblot); assay type: cell-based, human; settings: HD-MY-Z cells transduced with pSIREN-RetroQ vector; FIG. 3A
Excerpt: DLBCL and cHL cell lines were maintained as previously described (Mathas et al. (2002) Embo J 21, 4104-4113; Polo et al. (2007) Proc Natl Acad Sci USA 104, 3207-3212). Cells were lysed, size-fractionated on NuPAGE Novex 4-12% Bis-Tris Gels (Invitrogen, Carlsbad, Calif.), and transferred to PVDF membranes (Millipore Corp., Bedford, Mass.). Membranes were immunostained with purified Gal1 rabbit IgG (Rubinstein et al. (2004) Cancer Cell 5, 241-251) and HRP-conjugated donkey anti-rabbit antibody (GE Healthcare, Piscataway, N.J.) and developed using a chemiluminescent method (ECL, GE Healthcare).
Gal1 specific siRNA was designed using siRNA Selection Program (Yuan et al. (2004) Nucleic Acids Res 32, W130-134) (available on the World Wide Web at jura.wi.mit.edu/bioc/siRNAext/), synthesized as single-stranded DNA oligonucleotides by Integrated DNA Technologies (IDT, Inc., Coralville, Iowa) and annealed. […]

HD-MY-Z cells = assay: Proliferation rate and viability of transduced HD-MY-Z cells; assay type: cell-based, human; settings: after Gal1 knockdown
Excerpt: Gal1 specific siRNA was designed using siRNA Selection Program (Yuan et al. (2004) Nucleic Acids Res 32, W130-134) (available on the World Wide Web at jura.wi.mit.edu/bioc/siRNAext/), synthesized as single-stranded DNA oligonucleotides by Integrated DNA Technologies (IDT, Inc., Coralville, Iowa) and annealed. Gal1-specific oligonucleotide (Gal1 RNAi, […] (SEQ ID NO: 12) or scrambled oligonucleotide (SCR, […] (SEQ ID NO: 13) were ligated into the linearized pSIREN-RetroQ retroviral vector (BD Clontech, Mountain View, Calif.). Generation of recombinant retrovirus and infection of HD-MY-Z cells was performed as previously described (Juszczynski et al. (2006) Mol Cell Biol 26, 5348-5359). After infection, cells were subjected to puromycin selection (0.5 μg/mL) and subcloning by limiting dilution. Thereafter, whole-cell extracts of obtained subclones were prepared and screened for Gal1 expression by immunoblotting as described above.

Th1-dependent responses = settings: cited from earlier work; for Th1-dependent responses: murine models of chronic inflammatory / autoimmune disorders

Molecule	apoptosis of total activated T cells (normal activated T-cells)	IL-4 in supernatants (activated T cells [1])	IL-5 in supernatants (activated T cells [1])	IL-10 in supernatants (activated T cells [1])	IL-13 in supernatants (activated T cells [1])	CD4+ CD25high FOXP3+ Treg population (activated T cells [2])	viable Th (CD4+) T cells [3]	viable total (CD3+) T cells [3]	expression of GATA-3 (Th2-specific transcription factor) [4]	expression of T-bet (Th1-specific transcription factor) [4]	Gal1 protein expression (Gal1)	proliferation rate or viability of transduced HD-MY-Z cells (HD-MY-Z cells)	cytokine profile (Th1-dependent responses; murine models of Th1-driven chronic inflammatory and autoimmune disorders)	Th1-dependent responses (Th1-dependent responses; listed as Gal1)	Th1-dependent responses (Th1-dependent responses; listed as recombinant Gal1)	T-cell susceptibility to activation-induced cell death (Th1-dependent responses; murine models of chronic inflammatory diseases)
OC[C@H]1O[C@@H](S[C@@H]2O[C@H](CO)[C@H](O)[C@H](O)[C@H]2O)[C@H](O)[C@@H](O)[C@H]1O [TDG, thiodigalactoside, reference compound]	completely blocked rGal1-induced apoptosis	specifically blocked this effect	specifically blocked this effect	specifically blocked this effect	specifically blocked this effect	completely blocked this effect										
Gal1 shRNA: pSIREN-RetroQ retroviral vector encoding Gal1-specific shRNA; target sequence GCTGCCAGATGGATACGAA (SEQ ID NO: 1) (DNA GATCCGCTGCCAGATGGATACGAATTCAAGAGATTCGTATCCATCTGGCAGCTTTTTTG)							significantly fewer viable total (CD3^+) and Th (CD4^+) T cells in control (SCR) HD-MY-Z co-cultures than in co-cultures of HD-MY-Z cells with Gal1 knockdown	significantly fewer viable total (CD3^+) and Th (CD4^+) T cells in control (SCR) HD-MY-Z co-cultures than in co-cultures of HD-MY-Z cells with Gal1 knockdown	higher expression of GATA-3 than CD4^+ T cells from Gal1 shRNA HD-MY-Z co-cultures	control (SCR) HD-MY-Z cells exhibited significantly lower expression of T-bet	can be blocked	did not alter				
rGal1: recombinant Gal1 (galectin-1), a glycan-binding protein	induced apoptosis	significantly higher amounts	significantly higher amounts	significantly higher amounts	significantly higher amounts	significantly increased							skewed towards Th2 cytokine profiles	dramatically suppressed	suppressed	increased
